# Like-named read-outs stand apart in the source and are kept apart here.
# Columns and labels:
# ALK = biological target: T1, ALK (Homo sapiens, UniProt Q9UM73); assay: ALK Kinase Assay (ELISA/TRF, PLC-γ substrate); type: biochemical; conditions: read-out: ALK Potency
# T1 construct: host or cells: baculovirus expression system
# In short: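 Wells were coated with 10 μg/mL phospholipase C-γ substrate in TBS, and the reaction was started by adding 30 ng/ml ALK enzyme and run at 37° C for 15 minutes. Phosphorylated product was detected with Eu-N1-labeled PT66 antibody, and IC50 values came from sigmoidal variable-slope fits of percent inhibition against log concentration.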
# JAK2 = biological target: T2, JAK2 (Homo sapiens, UniProt O60674); assay: Recombinant Human JAK2 Kinase Assay (TRF); type: biochemical; conditions: read-out: JAK2 Potency
# T2 construct: host or cells: baculovirus expression system
# In short: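 TRF read-out: Eu-N1 PY100 anti-phosphotyrosine antibody detects product. Enzyme is baculovirus-expressed JAK2 at 15 ng/ml; substrate is a biotinyl 15-mer peptide bound to Neutravidin-coated wells. Buffer 20 mM HEPES pH 7.2, 0.2 μM ATP, 1 mM MnCl2, 0.1% BSA, 2.5% DMSO final; 20 min, RT.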
# [1] = ALK kinase inhibition, 1 μM ATP
# [2] = JAK2 kinase inhibition, 0.2 μM ATP
# T1 sequence (Q9UM73 19-1620): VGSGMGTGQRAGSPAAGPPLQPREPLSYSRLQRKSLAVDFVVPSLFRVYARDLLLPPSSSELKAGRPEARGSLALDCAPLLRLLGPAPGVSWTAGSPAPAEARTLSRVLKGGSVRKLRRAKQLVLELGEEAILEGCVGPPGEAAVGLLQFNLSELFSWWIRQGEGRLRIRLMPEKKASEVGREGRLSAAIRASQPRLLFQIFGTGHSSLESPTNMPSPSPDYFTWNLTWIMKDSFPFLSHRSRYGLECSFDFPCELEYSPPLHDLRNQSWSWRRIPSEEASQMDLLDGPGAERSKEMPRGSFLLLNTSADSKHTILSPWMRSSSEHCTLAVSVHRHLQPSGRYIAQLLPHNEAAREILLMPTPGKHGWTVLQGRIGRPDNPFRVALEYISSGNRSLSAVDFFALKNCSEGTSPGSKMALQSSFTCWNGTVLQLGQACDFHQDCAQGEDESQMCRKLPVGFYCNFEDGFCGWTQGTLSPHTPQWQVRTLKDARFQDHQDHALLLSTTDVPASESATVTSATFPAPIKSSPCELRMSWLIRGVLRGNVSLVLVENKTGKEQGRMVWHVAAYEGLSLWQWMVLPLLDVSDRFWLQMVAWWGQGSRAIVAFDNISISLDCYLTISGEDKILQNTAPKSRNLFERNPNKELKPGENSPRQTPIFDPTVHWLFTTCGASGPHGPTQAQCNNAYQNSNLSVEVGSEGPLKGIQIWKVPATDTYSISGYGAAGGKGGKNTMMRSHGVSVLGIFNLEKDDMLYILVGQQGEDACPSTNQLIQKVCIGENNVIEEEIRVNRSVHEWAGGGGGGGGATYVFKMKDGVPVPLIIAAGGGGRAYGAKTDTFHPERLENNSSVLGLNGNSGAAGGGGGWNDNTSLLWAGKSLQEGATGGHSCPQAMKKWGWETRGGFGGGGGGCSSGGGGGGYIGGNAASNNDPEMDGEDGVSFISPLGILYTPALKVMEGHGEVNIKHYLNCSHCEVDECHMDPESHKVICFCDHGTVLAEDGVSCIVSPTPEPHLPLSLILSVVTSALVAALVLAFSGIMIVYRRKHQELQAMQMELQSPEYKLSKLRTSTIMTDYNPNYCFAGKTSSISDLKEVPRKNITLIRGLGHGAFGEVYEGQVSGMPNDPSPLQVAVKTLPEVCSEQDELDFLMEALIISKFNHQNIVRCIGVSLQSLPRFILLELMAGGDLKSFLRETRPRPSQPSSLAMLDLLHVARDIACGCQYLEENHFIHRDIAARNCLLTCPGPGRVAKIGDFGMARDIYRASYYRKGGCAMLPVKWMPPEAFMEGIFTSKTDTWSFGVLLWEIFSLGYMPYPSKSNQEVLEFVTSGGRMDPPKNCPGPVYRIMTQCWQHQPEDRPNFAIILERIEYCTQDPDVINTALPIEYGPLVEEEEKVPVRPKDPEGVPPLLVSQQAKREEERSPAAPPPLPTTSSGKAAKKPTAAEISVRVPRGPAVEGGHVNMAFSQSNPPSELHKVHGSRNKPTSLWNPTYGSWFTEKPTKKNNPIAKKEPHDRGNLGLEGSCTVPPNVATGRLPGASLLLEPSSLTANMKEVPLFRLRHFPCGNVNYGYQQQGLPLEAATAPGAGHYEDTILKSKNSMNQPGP
# T2 sequence (O60674 whole entry): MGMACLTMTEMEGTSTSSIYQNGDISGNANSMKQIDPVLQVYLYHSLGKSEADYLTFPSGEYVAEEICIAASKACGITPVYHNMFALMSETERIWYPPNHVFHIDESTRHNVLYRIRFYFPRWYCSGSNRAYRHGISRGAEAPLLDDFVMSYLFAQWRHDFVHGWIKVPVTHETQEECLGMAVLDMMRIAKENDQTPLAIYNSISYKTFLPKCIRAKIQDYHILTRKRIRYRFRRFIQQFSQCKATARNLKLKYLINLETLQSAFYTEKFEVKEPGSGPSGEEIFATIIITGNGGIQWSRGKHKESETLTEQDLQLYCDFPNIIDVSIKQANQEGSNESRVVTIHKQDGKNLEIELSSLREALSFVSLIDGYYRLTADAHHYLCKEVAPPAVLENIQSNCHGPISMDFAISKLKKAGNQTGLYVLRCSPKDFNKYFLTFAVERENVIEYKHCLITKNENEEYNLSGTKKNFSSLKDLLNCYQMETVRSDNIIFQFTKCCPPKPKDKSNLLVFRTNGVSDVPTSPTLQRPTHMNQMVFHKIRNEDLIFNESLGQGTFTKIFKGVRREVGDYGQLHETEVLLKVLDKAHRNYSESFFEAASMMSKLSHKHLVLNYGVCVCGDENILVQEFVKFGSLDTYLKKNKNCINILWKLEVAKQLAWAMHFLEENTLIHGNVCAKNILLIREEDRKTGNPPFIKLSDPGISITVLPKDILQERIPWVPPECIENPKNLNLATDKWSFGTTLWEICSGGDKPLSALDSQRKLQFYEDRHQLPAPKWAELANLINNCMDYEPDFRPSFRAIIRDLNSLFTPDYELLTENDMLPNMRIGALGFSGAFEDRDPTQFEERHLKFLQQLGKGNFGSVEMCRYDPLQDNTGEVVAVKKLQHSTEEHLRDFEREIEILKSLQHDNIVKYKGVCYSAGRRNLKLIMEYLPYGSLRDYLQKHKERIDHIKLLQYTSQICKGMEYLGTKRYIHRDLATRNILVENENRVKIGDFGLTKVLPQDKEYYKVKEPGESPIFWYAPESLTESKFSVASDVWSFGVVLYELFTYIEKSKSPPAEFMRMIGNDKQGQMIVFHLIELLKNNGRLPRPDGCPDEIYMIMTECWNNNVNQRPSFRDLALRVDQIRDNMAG
IC50 (ALK; ALK Kinase Inhibition) [nM],IC50 (JAK2; JAK2 Kinase Inhibition) [nM],IC50 (ALK; [1]) [nM],IC50 (JAK2; [2]) [nM],Compound
< 100,100 to 1000,–,–,"COc1cc(N2CCC[C@@H](C(=O)N3CCN(C)CC3)C2)ccc1Nc1ncc2ccc(-c3ccccc3N(C)S(C)(=O)=O)n2n1 [Example 462, N-[2-(2-{2-Methoxy-4-[(R)-3-(4-methyl-piperazine-1-carbonyl)-piperidin-1-yl]-phenylamino}-pyrrolo[2,1-f][1,2,4]triazin-7-yl)-phenyl]-N-methyl-methanesulfonamide]"
–,–,1000 to 10000,100 to 1000,"CN(C)Cc1ccccc1-c1ccc2cnc(Nc3ccc(N4CCOCC4)cc3)nn12 [Example 1035, [7-(2-Dimethylaminomethyl-phenyl)-pyrrolo[2,1-f][1,2,4]triazin-2-yl]-(4-morpholin-4-yl-phenyl)-amine]"
1000 to 10000,< 100,–,–,"CN1CCN(c2ccc(Nc3ncc4ccc(-c5ccccc5S(C)(=O)=O)n4n3)cc2)CC1 [Example 406, [7-(2-Methanesulfonyl-phenyl)-pyrrolo[2,1-f][1,2,4]triazin-2-yl]-[4-(4-methyl-piperazin-1-yl)-phenyl]-amine]"
–,–,< 100,1000 to 10000,"COc1cc(CN2CCN(C[C@H](C)O)CC2)ccc1Nc1ncc2ccc(-c3ccccc3N(C)S(C)(=O)=O)n2n1 [Example 1224, N-[2-(2-{4-[4-((S)-2-Hydroxy-propyl)-piperazin-1-ylmethyl]-2-methoxy-phenylamino}-pyrrolo[2,1-f][1,2,4]triazin-7-yl)-phenyl]-N-methyl-methanesulfonamide]"
–,–,< 100,100 to 1000,"(S)-1-(4-{4-[7-(4-Chloro-2-methoxy-phenyl)-pyrrolo[2,1-f][1,2,4]triazin-2-ylamino]-3-methoxy-phenyl}-piperazin-1-yl)-propan-2-ol [Example 487]"
100 to 1000,< 100,–,–,"CN1CCN(c2ccc(Nc3ncc4ccc(C5CCCCC5)n4n3)cc2)CC1 [Example 123, (7-Cyclohexyl-pyrrolo[2,1-f][1,2,4]triazin-2-yl)-[4-(4-methyl-piperazin-1-yl)-phenyl]-amine]"
–,–,1000 to 10000,< 100,"Cc1cc(-c2ccc3cnc(Nc4ccc(N5CCOCC5)cc4)nn23)cnc1F [Example 1047, [7-(6-Fluoro-5-methyl-pyridin-3-yl)-pyrrolo[2,1-f][1,2,4]triazin-2-yl]-(4-morpholin-4-yl-phenyl)-amine]"
1000 to 10000,< 100,–,–,"NC(=O)CN1CCC(c2ccc(Nc3ncc4ccc(-c5cnccn5)n4n3)cc2)CC1 [Example 1564, 2-{4-[4-(7-Pyrazin-2-yl-pyrrolo[2,1-f][1,2,4]triazin-2-ylamino)-phenyl]-piperidin-1-yl}-acetamide]"
> 10000,< 100,–,–,"CC1(C)CCC(=O)Nc2cc(Nc3ncc4cc5ccccc5n4n3)ccc21 [Example 265, 5,5-Dimethyl-8-([1,2,4]triazino[1,6-a]indol-2-ylamino)-1,3,4,5-tetrahydro-benzo[b]azepin-2-one]"
–,–,100 to 1000,< 100,"Cn1cc(-c2ccc3cnc(Nc4ccc5c(c4)CCC(N4CCOCC4)CC5)nn23)cn1 (centres unmarked) [Example 1201, [7-(1-Methyl-1H-pyrazol-4-yl)-pyrrolo[2,1-f][1,2,4]triazin-2-yl]-(7-morpholin-4-yl-6,7,8,9-tetrahydro-5H-benzocyclohepten-2-yl)-amine]"
< 100,< 100,–,–,"COc1ccc(Cl)cc1-c1ccc2cnc(Nc3ccc(N4CCCC(N5CCOCC5)C4)cc3)nn12 (centres unmarked) [Example 344, [7-(5-Chloro-2-methoxy-phenyl)-pyrrolo[2,1-f][1,2,4]triazin-2-yl]-[4-(3-morpholin-4-yl-piperidin-1-yl)-phenyl]-amine]"
–,–,1000 to 10000,< 100,"CN(C)S(=O)(=O)c1cccc(Nc2ncc3ccc(-c4cccc(S(=O)(=O)NC(C)(C)C)c4)n3n2)c1 [Example 592, 3-({7-[3-(tert-butylsulfamoyl)phenyl]pyrrolo[2,1-f][1,2,4]triazin-2-yl}amino)-N,N-dimethylbenzenesulfonamide]"
–,–,< 100,100 to 1000,"COc1cc(CN2CCN(C(=O)CNC(=O)OC(C)(C)C)CC2)ccc1Nc1ncc2ccc(-c3ccccc3N(C)S(C)(=O)=O)n2n1 [Example 1239, {2-[4-(4-{7-[2-(Methanesulfonyl-methyl-amino)-phenyl]-pyrrolo[2,1-f][1,2,4]triazin-2-ylamino}-3-methoxy-benzyl)-piperazin-1-yl]-2-oxo-ethyl}-carbamic acid tert-butyl ester]"
–,–,100 to 1000,< 100,"CN1CCC(c2ccc(Nc3ncc4ccc(-c5cccc(S(=O)(=O)N6CCCC6)c5)n4n3)cc2)CC1 [Example 903, [4-(1-Methyl-piperidin-4-yl)-phenyl]-{7-[3-(pyrrolidine-1-sulfonyl)-phenyl]-pyrrolo[2,1-f][1,2,4]triazin-2-yl}-amine]"
< 100,< 100,–,–,"CN(c1ccccc1-c1ccc2cnc(Nc3ccc(N4CCC(N5CCOCC5)CC4)cc3)nn12)S(C)(=O)=O [Example 1456, N-Methyl-N-(2-{2-[4-(4-morpholin-4-yl-piperidin-1-yl)-phenylamino]-pyrrolo[2,1-f][1,2,4]triazin-7-yl}-phenyl)-methanesulfonamide]"
100 to 1000,< 100,–,–,"O=C(c1ccc(Nc2ncc3ccc(-c4cccc(Cl)c4)n3n2)cc1)N1CCOCC1 [Example 316, {4-[7-(3-Chloro-phenyl)-pyrrolo[2,1-f][1,2,4]triazin-2-ylamino]-phenyl}-morpholin-4-yl-methanone]"
–,–,100 to 1000,< 100,"CN(c1ccccc1-c1ccc2cnc(Nc3cnn(C4CCNCC4)c3)nn12)S(C)(=O)=O [Example 717, N-Methyl-N-{2-[2-(1-piperidin-4-yl-1H-pyrazol-4-ylamino)-pyrrolo[2,1-f][1,2,4]triazin-7-yl]-phenyl}-methanesulfonamide]"
100 to 1000,< 100,–,–,"CN1CCN(c2ccc(Nc3ncc4ccc(-c5ccc(S(C)(=O)=O)cc5)n4n3)cc2F)CC1 [Example 1437, [3-Fluoro-4-(4-methyl-piperazin-1-yl)-phenyl]-[7-(4-methanesulfonyl-phenyl)-pyrrolo[2,1-f][1,2,4]triazin-2-yl]-amine]"
100 to 1000,< 100,–,–,"CC(=O)Nc1cc(Nc2ncc3ccc(-c4cccnc4)n3n2)ccc1C(C)(C)C [Example 308, N-[2-tert-Butyl-5-(7-pyridin-3-yl-pyrrolo[2,1-f][1,2,4]triazin-2-ylamino)-phenyl]-acetamide]"
–,–,1000 to 10000,< 100,"COc1ccc(-c2ccc3cnc(Nc4ccc(N5CCOCC5)cc4)nn23)cn1 [Example 1105, [7-(6-Methoxy-pyridin-3-yl)-pyrrolo[2,1-f][1,2,4]triazin-2-yl]-(4-morpholin-4-yl-phenyl)-amine]"
–,–,100 to 1000,< 100,"CN1CCN(C(=O)c2cccc(Nc3ncc4ccc(-c5cccc(S(=O)(=O)NC(C)(C)C)c5)n4n3)c2)CC1 [Example 891, N-tert-Butyl-3-{2-[3-(4-methyl-piperazine-1-carbonyl)-phenylamino]-pyrrolo[2,1-f][1,2,4]triazin-7-yl}-benzenesulfonamide]"
–,–,< 100,< 100,"COc1cc2c(cc1Nc1ncc3ccc(-c4ccccc4OC)n3n1)CN(C)C2 [Example 816, (6-Methoxy-2-methyl-2,3-dihydro-1H-isoindol-5-yl)-[7-(2-methoxy-phenyl)-pyrrolo[2,1-f][1,2,4]triazin-2-yl]-amine]"
–,–,100 to 1000,< 100,"CC(C)(C)NS(=O)(=O)c1cccc(-c2ccc3cnc(Nc4ccc(C5CCC(O)CC5)cc4)nn23)c1 (centres unmarked) [Example 568, N-tert-Butyl-3-{2-[4-(4-hydroxy-cyclohexyl)-phenylamino]-pyrrolo[2,1-f][1,2,4]triazin-7-yl}-benzenesulfonamide]"
–,–,< 100,100 to 1000,"COc1cc(C2CCN(CC(N)=O)CC2)ccc1Nc1ncc2ccc(-c3ccncc3OC)n2n1 [Example 857, 2-(4-{3-Methoxy-4-[7-(3-methoxy-pyridin-4-yl)-pyrrolo[2,1-f][1,2,4]triazin-2-ylamino]-phenyl}-piperidin-1-yl)-acetamide]"
–,–,< 100,100 to 1000,"COc1cc(OC2CCN(C)CC2)ccc1Nc1ncc2ccc(-c3ccccc3N(C)S(C)(=O)=O)n2n1 [Example 999, N-(2-{2-[2-Methoxy-4-(1-methyl-piperidin-4-yloxy)-phenylamino]-pyrrolo[2,1-f][1,2,4]triazin-7-yl}-phenyl)-N-methyl-methanesulfonamide]"
–,–,100 to 1000,< 100,"COc1ccccc1-c1ccc2cnc(Nc3ccc4oc(C)nc4c3)nn12 [Example 564, [7-(2-Methoxy-phenyl)-pyrrolo[2,1-f][1,2,4]triazin-2-yl]-(2-methyl-benzoxazol-5-yl)-amine]"

Compound,IC50 (ALK; ALK Kinase Inhibition) [nM],IC50 (JAK2; JAK2 Kinase Inhibition) [nM],IC50 (ALK; [1]) [nM],IC50 (JAK2; [2]) [nM]
"COCCN1CC[C@](O)(c2ccc(Nc3ncc4ccc(-c5ccccc5N(C)S(C)(=O)=O)n4n3)c(OC)c2)[C@@H](O)C1 (racemic) [Example 846, (±)-N-[2-(2-{4-[(3S,4S)-3,4-Dihydroxy-1-(2-methoxy-ethyl)-piperidin-4-yl]-2-methoxy-phenylamino}-pyrrolo[2,1-f][1,2,4]triazin-7-yl)-phenyl]-N-methyl-methanesulfonamide]",–,–,< 100,100 to 1000
"CC(C)(C)NS(=O)(=O)c1cccc(-c2ccc3cnc(Nc4ccc(C5(C#N)CCN(CC(N)=O)CC5)cc4)nn23)c1 [Example 1544, 2-(4-{4-[7-(3-tert-Butylsulfamoyl-phenyl)-pyrrolo[2,1-f][1,2,4]triazin-2-ylamino]-phenyl}-4-cyano-piperidin-1-yl)-acetamide]",100 to 1000,< 100,–,–

# — US8471005B2 (Cephalon, Inc., priority 2008, dated 2013)
